Patent publication US6780853B1, “Neuroactive steroids of the androstane and pregnane series” (priority 1995, dated 2004)
Structures can show the parent of a compound that is named as a salt.

Target: GABA receptor complex (GRC)
Experiment: [35S]TBPS binding in rat cerebral cortex P2 homogenate
Conditions: for IC50: concentration to inhibit 50% of control [35S]TBPS binding, 2 nM [35S]TBPS; for IMAX (maximum inhibition): maximum inhibition of [35S]TBPS binding
Text: To those skilled in the art, it is known that the modulation of [^35S]t-butylbicyclophosphorothionate ([^35S]TBPS) binding is a measure of the potency and efficacy of drugs acting at the GRC, which drugs may be of potential therapeutic value in the treatment of stress, anxiety, and seizure disorders (Squires, R. F., et al., Mol, Pharmacol., 23:326 (1983); Lawrence, L. J., et al., Biochem. Biophys. Res. Comm., 123:1130-1137 (1984); Wood, et al., Pharmacol, Exp. Ther., 231:572-576 (1984)). Several experiments were performed previously to determine the nature of the modulation of [^35S]TBPS as affected by neuroactive steroids. […] Furthermore, these compounds have high potency and efficacy at the GRC, with stringent structural requirements for such activity.
The procedures for performing this assay are fully discussed in: (1) Gee, K. W. et al., European Journal of Pharmacology, 136:419-423 (1987)); and (2) Gee, et al., Molecular Pharmacology 30:218 (1986). These procedures were performed as follows:
Brains from male Sprague-Dawley rats were removed immediately following sacrifice and the cerebral cortices dissected over ice. A P2 homogenate was prepared as previously described (Gee, et al., Molecular Pharmacology 30:218 (1986)). Briefly, the cortices were gently homogenized in 032 M sucrose followed by centrifugation at 1000×g for 10 minutes. The supernatant was collected and centrifuged at 9000×g for 20 minutes. The resultant P2 pellet was suspended as a 10% (original wet weight/volume) suspension in 50 mM Na/K phosphate buffer (pH 7.4) 200 mM NaCl to form the homogenate.
One hundred microliter […] aliquots of the P2 homogenate (0.5 milligrams (mg) protein) were incubated with 2 nanomolar (nM) [^35S]TBPS (70-110 curies/millimole; New England Nuclear, Boston, Mass.) in the presence or absence of the naturally occurring steroids or their synthetic derivatives to be tested. The tested compounds were dissolved in dimethylsulfoxide (Baker Chem. Co., Phillipsburg, N.J.) and added to the incubation mixture in 5 μL aliquots. The incubation mixture was brought to a final volume of 1 mL with buffer. Non-specific binding was defined as binding in the presence of […]. The effect and specificity of GABA (Sigma Chem. Co., St. Louis, Mo.) was evaluated by performing all assays in the presence of GABA plus (+)bicuculline (Sigma Chem. Co.). Incubations maintained at 25° C. for 90 minutes (steady state conditions) were terminated by rapid filtration through glass fiber filters (No. 32, Schleicher and Schuell, Keene, N.H.). Filter-bound radioactivity was quantitated by liquid scintillation spectrophotometry. Kinetic data and compound/[^35S]TBPS dose-response curves were analyzed by nonlinear regression using a computerized iterative procedure to obtain rate constants and IC50 (concentration of compound at which half-maximal inhibition of basal [^35S]TBPS binding occurs) values.
Various compounds were screened to determine their potential as modulators of [^35S]TBPS binding in vitro. These assays were performed in accordance with the above discussed procedures. Based on these assays, we have established the structure-activity requirements for their specific interaction at the GRC and their rank order potency and efficacy. Experimental data obtained in this assay for a number of 3α-hydroxypregnan-20-one derivatives is discussed in Gee, K. W. et al., European Journal of Pharmacology, 136:419-423 (1987) and in U.S. Pat. No. 5,232,917. Table 1 provides IC50 and maximum inhibition (IMAX) measurements for numerous compounds, including examples of compounds disclosed and claimed herein. IC50 is defined as concentration of compounds to inhibit 50% of control [^35S]TBPS binding. It is an indication of a compound's in vitro potency. Maximum inhibition is an indication of a compound's in vitro efficacy.

CO[C@H]1CC[C@H]2[C@@H]3CC[C@H]4C[C@](C)(O)CC[C@]4(C)[C@H]3CC[C@]12C [3α-Hydroxy-17β-methoxy-3βmethyl-5α-androstane]
IC50: 97 nM
IMAX (maximum inhibition): 97%

COCC1(O)CCC2(C)C(CCC3C2CCC2(C)C(C(=O)CSc4ccncc4)CCC32)C1 (stereo not drawn) [3α-hydroxy-3β-methoxymethyl-21-(pyrid-4-ylthio)-5α-pregnan-20-one]
IC50: 38 nM
IMAX (maximum inhibition): 106%

C#CC1(O)CCC2(C)C(CCC3C2CCC2(C)C(C(=O)CSCCCS(=O)(=O)O)CCC32)C1 (stereo not drawn) [3β-ethynyl-3α-hydroxy-21-thiopropanesulfonate-5β-pregnan-20-one sodium salt]
IC50: 343 nM
IMAX (maximum inhibition): 97%

CC(=O)[C@H]1CC[C@H]2[C@@H]3CCC4=CC(=O)CC[C@]4(C)[C@H]3CC[C@]12C [Progesterone, reference compound]
IC50: 5200 nM
IMAX (maximum inhibition): 100%

COCC1(O)CCC2(C)C(CCC3C2CCC2(C)C(C(=O)CSc4ccc(F)cc4)CCC32)C1 (stereo not drawn) [21-(4′-fluorophenylthio)-3α-hydroxy-3β-methoxymethyl-5α-pregnan-20-one]
IC50: 176 nM
IMAX (maximum inhibition): 97%

CC12CCC(O)CC1CCC1C2CCC2(C)C(C(=O)CS(=O)(=O)O)CCC12 (stereo not drawn) [3α-Hydroxy-21-sulfonic acid-5β-pregnan-20-one 21-sodium salt]
IC50: 732 nM
IMAX (maximum inhibition): 62%

CO[C@H]1CC[C@H]2[C@@H]3CC[C@H]4C[C@H](O)[C@@H](OC(C)C)C[C@]4(C)[C@H]3CC[C@]12C [3α-Hydroxy-2β-isopropoxy-17β-methoxy-5α-androstane]
IC50: 26 nM
IMAX (maximum inhibition): 100%

C#CC1(O)CCC2(C)C(CCC3C2CCC2(C)C(C(=O)CSCCCOS(=O)(=O)O)CCC32)C1 (stereo not drawn) [3β-Ethynyl-3α-hydroxy-21-thiopropanesulfate-5β-pregnan-20-one sodium salt]
IC50: 113 nM
IMAX (maximum inhibition): 104%

C[C@@]12CCC[C@H]1[C@@H]1CC[C@@H]3C[C@H](O)CC[C@]3(C)[C@H]1CC2 [3α-Hydroxy-5β-androstane, reference compound]
IC50: 815 nM
IMAX (maximum inhibition): 83%

C#CC1(O)CCC2(C)C(CCC3C2CCC2(C)C(C(=O)CSCCC(=O)O)CCC32)C1 (stereo not drawn) [3β-ethynyl-3α-hydroxy-21-thiopropanoate-5β-pregnan-20-one sodium salt]
IC50: 1020 nM
IMAX (maximum inhibition): 101%

CC(C)CCC[C@@H](C)[C@H]1CC[C@H]2[C@@H]3CC=C4C[C@@H](O)CC[C@]4(C)[C@H]3CC[C@]12C [Cholesterol, reference compound]
IMAX (maximum inhibition): 0%

COCC1(O)CCC2(C)C(CCC3C2CCC2(C)C(C(=O)CS(=O)(=O)c4ccc(N5CCCC5)cc4)CCC32)C1 (stereo not drawn) [3α-Hydroxy-3β-methoxymnethyl-21-(4′-pyrrolidinophenyl)sulfonyl-5α-pregnan-20-one]
IC50: 208 nM
IMAX (maximum inhibition): 101%

C[n+]1ccc(SCC(=O)C2CCC3C4CCC5CC(O)CCC5(C)C4CCC23C)cc1 (stereo not drawn) [3α-Hydroxy-21-(pyrid-4-ylthio)-5α-pregnan-20 -one N-methyl i] [3α-Hydroxy-21-(pyrid-4-ylthio)-5α-pregnan-20-one N-methyl iodide]
IC50: 188 nM
IMAX (maximum inhibition): 100%

C#CC1(O)CCC2(C)C(CCC3C2CCC2(C)C(C(=O)C[S+]([O-])CCCO)CCC32)C1 (stereo not drawn) [3β-Ethynyl-3α-hydroxy-21-hydroxpropylsulfinyl-5β-pregnan-20-one]
IC50: 782 nM
IMAX (maximum inhibition): 107%

CCCO[C@H]1C[C@@]2(C)[C@@H](CC[C@@H]3[C@@H]2CC[C@]2(C)[C@@H](C(=O)CS(=O)(=O)CCCS(=O)(=O)[O-])CC[C@@H]32)C[C@@H]1O.[Na+] [3α-Hydroxy-2β-propoxy-21-sulfonylpropanesulfonate-5α-pregnan-20-one sodium salt]
IC50: 1020 nM
IMAX (maximum inhibition): 101%

CCCOC1CC2(C)C(CCC3C2CCC2(C)C(C(=O)COc4ccc([N+](C)(C)C)cc4)CCC32)CC1O (stereo not drawn) [3α-hydroxy-2β-propoxy-21-(4′-N,N,N-trimethylammoniumphenoxy)-5α-pregnan-20-one iodide salt]
IC50: 129 nM
IMAX (maximum inhibition): 92%

C#C[C@@]1(O)CC[C@@]2(C)[C@H](CC[C@@H]3[C@@H]2CC[C@]2(C)[C@@H](C(=O)CSCCO)CC[C@@H]32)C1 [3β-Ethynyl-3α-hydroxy-21-hydroxyethylthio-5β-pregnan-20-one]
IC50: 180 nM
IMAX (maximum inhibition): 103%

CC(C)O[C@H]1C[C@@]2(C)[C@@H](CC[C@H]3[C@@H]4CCC[C@@]4(C)CC[C@@H]32)C[C@@H]1O [3α-Hydroxy-2β-isopropoxy-5α-androstane, 2β-Isopropoxy-3α-hydroxy-5α-androstane]
IC50: 456 nM
IMAX (maximum inhibition): 98%

C[C@@]1(O)CC[C@@]2(C)[C@@H](CC[C@@H]3[C@@H]2CC[C@]2(C)[C@@H](C(=O)COc4ccc5ncccc5c4)CC[C@@H]32)C1 [3α-hydroxy-3β-methyl-21-(quinolin-6-yloxy)-5α-pregnan-20-one]
IC50: 76 nM
IMAX (maximum inhibition): 96%

CCCO[C@H]1C[C@@]2(C)[C@@H](CC[C@@H]3[C@@H]2CC[C@]2(C)[C@@H](C(=O)CSCCCS(=O)(=O)[O-])CC[C@@H]32)C[C@@H]1O.[Na+] [3α-hydroxy-2β-propoxy-21-thiopropanesulfonate-5α-pregnan-20-one sodium salt]
IC50: 67 nM
IMAX (maximum inhibition): 101%

C#C[C@@]1(O)CC[C@@]2(C)[C@H](CC[C@@H]3[C@@H]2CC[C@]2(C)[C@@H](C(=O)CS(=O)(=O)CCCO)CC[C@@H]32)C1 [3β-Ethynyl-3α-hydroxy-21-hydroxypropylsulfonyl-5β-pregnan-20-one]
IC50: 194 nM
IMAX (maximum inhibition): 107%

C[C@]12CC[C@@H]3c4ccc(O)cc4CC[C@H]3[C@@H]1CC[C@@H]2O [17β-Estradiol, reference compound]
IMAX (maximum inhibition): 0%

C[C@@]12CCC[C@H]1[C@@H]1CC[C@H]3C[C@H](O)CC[C@]3(C)[C@H]1CC2 [3α-Hydroxy-5α-androstane, reference compound]
IC50: 494 nM
IMAX (maximum inhibition): 99%

CC12CCC(O)CC1CCC1C2CCC2(C)C(C(=O)COc3ccc[n+]([O-])c3)CCC12 (stereo not drawn) [3α-Hydroxy-21-(3′-pyridyl)oxy-5β-pregnan-20-one N-oxide]
IC50: 292 nM
IMAX (maximum inhibition): 62%

CC(=O)c1ccc(C#C[C@@]2(O)CC[C@@]3(C)[C@H](CC[C@@H]4[C@@H]3CC[C@]3(C)[C@@H](C(=O)CSc5ccncc5)CC[C@@H]43)C2)cc1 [3β-(4′-acetylphenyl)ethynyl-3α-hydroxy-21-(pyrid-4ylthio)-5β-pregnan-20-one]
IC50: 29 nM
IMAX (maximum inhibition): 94%

CCCO[C@H]1C[C@@]2(C)[C@@H](CC[C@@H]3[C@@H]2CC[C@]2(C)[C@@H](C(=O)CSc4ccncc4)CC[C@@H]32)C[C@@H]1O [3α-hydroxy-2β-propoxy-21-(pyrid-4-ylthio)-5α-pregnan-20-one]
IC50: 14 nM
IMAX (maximum inhibition): 98%

CC(=O)c1ccc(C#CC2(O)CCC3C(CCC4C3CCC3(C)CCCC43)C2)cc1 (stereo not drawn) [3α-Hydroxy-3β-(4′-acetylphenyl)ethynyl-5β-19-norandrostane]
IC50: 492 nM
IMAX (maximum inhibition): 99%

CCCOC1CC2(C)C(CCC3C2CCC2(C)C(C(=O)CSc4cc[n+](C)cc4)CCC32)CC1O (stereo not drawn) [3α-Hydroxy-2β-propoxy-21-(pyrid-4-ylthio)-5α-pregnan-20-one N-methyl iodide]
IC50: 126 nM
IMAX (maximum inhibition): 101%
